Values joined by “and” are separate entries in the source; they are usually repeats but may differ in a detail not shown here. Identical values can stand only once.
How the values were obtained:
[1] = target: T1, farnesyl protein transferase (Homo sapiens, UniProt P49354+P49356); assay: FPT inhibition, in vitro enzyme assay (H-ras); assay type: biochemical
Experimental: (§1) FPT IC50 (inhibition of farnesyl protein transferase, in vitro enzyme assay) and COS Cell IC50 (Cell-Based Assay) were determined following the assay procedures described in WO 95/10516, published Apr. 20, 1995. GGPT IC50 (inhibition of geranylgeranyl protein transferase, in vitro enzyme assay), Cell Mat Assay, and anti-tumor activity (in vivo anti-tumor studies) could be determined by the assay procedures described in WO 95/10516. The disclosure of WO 95/10516 is incorporated herein by reference thereto.

Human tumor cells = assay: Soft Agar Assay (anchorage-independent growth of human tumor cells); assay type: cell-based; conditions: 10-16 days at 37° C., 5% CO2, MTT stain
Experimental: Soft Agar Assay: Anchorage-independent growth is a characteristic of tumorigenic cell lines. Human tumor cells are suspended in growth medium containing 0.3% agarose and an indicated concentration of a farnesyl transferase inhibitor. The solution is overlayed onto growth medium solidified with 0.6% agarose containing the same concentration of farnesyl transferase inhibitor as the top layer. After the top layer is solidified, plates are incubated for 10-16 days at 37° C. under 5% CO2 to allow colony outgrowth. […] Colonies can be counted and the IC50 's can be determined.

[2] = target: T1, farnesyl protein transferase; assay: FPT inhibition, in vitro enzyme assay (K-ras); assay type: biochemical
Experimental: as §1

COS Cell = COS Cell IC50 (Cell-Based Assay); conditions: COS cells
Experimental: as §1

T1 sequence (P49356 whole entry, one chain of several): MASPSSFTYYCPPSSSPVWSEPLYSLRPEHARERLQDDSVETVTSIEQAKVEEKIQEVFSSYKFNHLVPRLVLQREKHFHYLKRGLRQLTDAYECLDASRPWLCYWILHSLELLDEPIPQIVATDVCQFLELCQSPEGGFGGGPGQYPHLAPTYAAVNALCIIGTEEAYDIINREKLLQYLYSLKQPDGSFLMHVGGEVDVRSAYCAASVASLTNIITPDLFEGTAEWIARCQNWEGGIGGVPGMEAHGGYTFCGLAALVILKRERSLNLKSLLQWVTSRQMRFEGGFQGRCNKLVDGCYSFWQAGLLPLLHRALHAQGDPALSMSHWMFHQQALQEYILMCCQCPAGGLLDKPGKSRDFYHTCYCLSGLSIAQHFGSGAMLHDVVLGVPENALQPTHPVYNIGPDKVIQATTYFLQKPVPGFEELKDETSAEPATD

SMILES	IC50 [1]	IC50 [2] [nM]	IC50 (Human tumor cells) [nM]	IC50 (COS Cell) [nM]
CCS(=O)(=O)N1CCC(CC(=O)N2CCC([C@H]3c4ncc(Br)cc4CCc4cc(Cl)cc(Br)c43)CC2)CC1 [Example 6]	3.7 nM	16.4	100	12
O=C(CC1CCN(S(=O)(=O)c2cccs2)CC1)N1CCC([C@H]2c3ncc(Br)cc3CCc3cc(Cl)cc(Br)c32)CC1 [Example 13]			> 250	50
Cn1cnc(S(=O)(=O)N2CCC(CC(=O)N3CCC([C@H]4c5ncc(Br)cc5CCc5cc(Cl)cc(Br)c54)CC3)CC2)c1 [Example 14]				400

More lines, main results first:

IC50 [1]	IC50 [2] [nM]	SMILES	IC50 (Human tumor cells) [nM]	IC50 (COS Cell) [nM]
5 nM	14.2	CCCS(=O)(=O)N1CCC(CC(=O)N2CCC([C@H]3c4ncc(Br)cc4CCc4cc(Cl)cc(Br)c43)CC2)CC1 [Example 7]		
5.8 nM	22.9	CC(C)S(=O)(=O)N1CCC(CC(=O)N2CCC([C@H]3c4ncc(Br)cc4CCc4cc(Cl)cc(Br)c43)CC2)CC1 [Example 8]		
17.5 nM and 8 nM		O=C(CC1CCN(S(=O)(=O)Cc2ccccc2)CC1)N1CCC([C@H]2c3ncc(Br)cc3CCc3cc(Cl)cc(Br)c32)CC1 [Example 9]		
34.1 nM	52.5	CC1(C)[C@@H]2CC[C@@]1(CS(=O)(=O)N1CCC(CC(=O)N3CCC([C@H]4c5ncc(Br)cc5CCc5cc(Cl)cc(Br)c54)CC3)CC1)C(=O)C2 [Example 10]		

Reference: patent publication US5945429A, “Compounds useful for inhibition of farnesyl protein transferase” (Schering Corporation, priority 1997, dated 1999)
